A word on the EC50: it is the concentration at which the effect is half-maximal. Low readings indicate greater potency, high ones weaker potency.

Structures are written as SMILES.

In the experiment the target is Peroxisome proliferator-activated receptor gamma (Homo sapiens) (UniProt P37231). In words: Effective concentration for human peroxisome proliferator-activated receptor gamma.
`CCO[C@@H](Cc1ccc(OCc2ccc(COc3ccc(C[C@H](OCC)C(=O)O)cc3)cc2)cc1)C(=O)O` [(S)-3-(4-{4-[4-((S)-2-Carboxy-2-ethoxy-ethyl)-phenoxymethyl]-benzyloxy}-phenyl)-2-ethoxy-propionic acid]: a half-maximal response (EC50) required 14 µM. `CCO[C@@H](Cc1ccc(OC/C=C(/C)C#Cc2ccccc2)cc1)C(=O)O` [(S)-2-Ethoxy-3-[4-((Z)-3-methyl-5-phenyl-pent-2-en-4-ynyloxy)-phenyl]-propionic acid] showed an EC50 of 0.6 µM. The result for `CCO[C@@H](Cc1ccc(O/C=C\Oc2ccc(C[C@@H](OCC)C(=O)O)cc2)cc1)C(=O)O` [(S)-3-(4-{(Z)-2-[4-((R)-2-Carboxy-2-ethoxy-ethyl)-phenoxy]-vinyloxy}-phenyl)-2-ethoxy-propionic acid] reads 15 µM.
